Test results reported in ChEMBL document CHEMBL5143521, “Identification of a selective BRD4 PROTAC with potent antiproliferative effects in AR-positive prostate cancer based on a dual BET/PLK1 inhibitor” (Eur J Med Chem, 2022).
The source made the active and inactive calls. No cut-off for these calls is given here.

What was measured:
VCaP [1] = assay: Antiproliferative activity against AR-positive human VCaP cells assessed as reduction in cell viability measured after 4 days by MTT assay; format: functional, cell-based; details: 96 h
LNCaP [2] = assay: Antiproliferative activity against AR-positive harmone sensitive human LNCaP cells assessed as reduction in cell viability measured after 4 days by MTT assay; format: functional, cell-based; details: 96 h
CWR22R [3] = assay: Inhibition of colony formation in AR-positive human 22Rv1 cells at 1 nM measured after 12 days by crystal violet staining based assay; format: functional, cell-based; details: time 12.0 day
CWR22R [4] = assay: Induction of cell cycle arrest in AR-positive human 22Rv1 cells assessed as upregulation of cyclin B1 expression at 1 to 3 uM measured after 72 hrs by Western blot analysis; format: functional, cell-based; details: dose 1-3 µM
CWR22R [5] = assay: Induction of cell cycle arrest in AR-positive human 22Rv1 cells assessed as downregulation of cyclin D1 expression at 1 to 3 uM measured after 72 hrs by Western blot analysis; format: functional, cell-based; details: dose 1-3 µM
DU-145 [6] = assay: Antiproliferative activity against negative human castration resistant DU-145 cells assessed as reduction in cell viability at 1 nM incubated for 3 days followed by compound washout and measured after 8 days; format: functional, cell-based; details: time 3.0 day
PC-3 [7] = assay: Antiproliferative activity against AR-negative human castration resistant PC-3 cells assessed as reduction in cell viability measured after 4 days by MTT assay; format: functional, cell-based; details: PC-3, 96 h
CWR22R [8] = assay: Induction of cell cycle arrest in AR-positive human 22Rv1 cells assessed as downregulation of cyclin E expression at 1 to 3 uM measured after 72 hrs by Western blot analysis; format: functional, cell-based; details: dose 1-3 µM
DU-145 [9] = assay: Inhibition of colony formation in AR-negative human castration resistant DU-145 cells at 1 nM measured after 12 days by crystal violet staining based assay; format: functional, cell-based; details: time 12.0 day
CWR22R [10] = assay: Antiproliferative activity against AR-positive human 22Rv1 cells assessed as reduction in cell viability measured after 4 days by MTT assay; format: functional, cell-based; details: 22Rv1, 96 h
DU-145 [11] = assay: Antiproliferative activity against AR-negative human castration resistant DU-145 cells assessed as reduction in cell viability measured after 4 days by MTT assay; format: functional, cell-based; details: DU-145, 96 h
PC-3 [12] = assay: Inhibition of colony formation in AR-negative human castration resistant PC-3 cells at 1 nM measured after 12 days by crystal violet staining based assay; format: functional, cell-based; details: time 12.0 day
CWR22R [13] = assay: Induction of cell cycle arrest in AR-positive human 22Rv1 cells assessed as downregulation of CDK6 expression at 1 to 3 uM measured after 72 hrs by Western blot analysis; format: functional, cell-based; details: dose 1-3 µM
LNCaP [14] = assay: Antiproliferative activity against AR-positive harmone sensitive human LNCaP cells assessed as reduction in cell viability at 1 nM incubated for 3 days followed by compound washout and measured after 8 days; format: functional; details: 72 h, time 3 day
CWR22R [15] = assay: Antiproliferative activity against AR-positive human 22Rv1 cells assessed as reduction in cell viability at 1 nM incubated for 3 days followed by compound washout and measured after 8 days; format: functional; details: 22Rv1, 72 h, time 3 day
CWR22R [16] = assay: Induction of cell cycle arrest in AR-positive human 22Rv1 cells assessed as accumulation of cells at G2/M phase at 1 to 3 uM measured after 72 hrs by flow cytometry analysis; format: functional, cell-based; details: dose 1-3 µM
CWR22R [17] = assay: Induction of cell cycle arrest in AR-positive human 22Rv1 cells assessed as downregulation of CDK2 expression at 1 to 3 uM measured after 72 hrs by Western blot analysis; format: functional, cell-based; details: dose 1-3 µM
MV4-11 = assay: Antiproliferative activity against human MV4-11 cells assessed as reduction in cell viability measured after 4 days by MTT assay; format: functional, cell-based; details: MV4-11, 96 h
[18] = target: Bromodomain-containing protein 4 (Homo sapiens, UniProt O60885); assay: Inhibition of BRD4 (unknown origin) by alpha-screen assay
[19] = target: Serine/threonine-protein kinase PLK1 (Homo sapiens, UniProt P53350); assay: Inhibition of recombinant full length human PLK1 using casein as substrate incubated for 40 mins in presence of [gamma-33P]-ATP by radiometric scintillation counting method
VCaP [20] = assay: Inhibition of c-Myc expression level in human VCap cells at 10 nM incubated for 24 hrs by immunoblotting analysis; format: functional, cell-based
[21] = target: Protein cereblon/Bromodomain-containing protein 4 (Homo sapiens) (UniProt O60885+Q96SW2); assay: Protac activity at BRD4/CRBN in human VCaP cells assessed as degradation of BRD4 by measuring downregulation of BRD4 expression level at 10 nM incubated for 24 hrs by immunoblotting analysis; format: cell-based
Chain of Protein cereblon/Bromodomain-containing protein 4 (Homo sapiens) (Q96SW2 whole entry, looked up, other chains not shown): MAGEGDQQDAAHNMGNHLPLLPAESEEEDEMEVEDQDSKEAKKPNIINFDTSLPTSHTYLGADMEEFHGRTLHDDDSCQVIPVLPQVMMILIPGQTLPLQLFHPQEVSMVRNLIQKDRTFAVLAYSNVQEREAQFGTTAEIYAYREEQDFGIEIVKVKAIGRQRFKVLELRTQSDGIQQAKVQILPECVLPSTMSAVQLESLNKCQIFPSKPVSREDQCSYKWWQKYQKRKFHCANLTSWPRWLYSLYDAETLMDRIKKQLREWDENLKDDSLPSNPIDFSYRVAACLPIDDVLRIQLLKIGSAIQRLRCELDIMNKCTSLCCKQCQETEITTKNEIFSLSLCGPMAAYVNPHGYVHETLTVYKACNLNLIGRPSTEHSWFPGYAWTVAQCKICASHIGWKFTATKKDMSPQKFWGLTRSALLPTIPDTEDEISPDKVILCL

Chain of Serine/threonine-protein kinase PLK1 (P53350 whole entry): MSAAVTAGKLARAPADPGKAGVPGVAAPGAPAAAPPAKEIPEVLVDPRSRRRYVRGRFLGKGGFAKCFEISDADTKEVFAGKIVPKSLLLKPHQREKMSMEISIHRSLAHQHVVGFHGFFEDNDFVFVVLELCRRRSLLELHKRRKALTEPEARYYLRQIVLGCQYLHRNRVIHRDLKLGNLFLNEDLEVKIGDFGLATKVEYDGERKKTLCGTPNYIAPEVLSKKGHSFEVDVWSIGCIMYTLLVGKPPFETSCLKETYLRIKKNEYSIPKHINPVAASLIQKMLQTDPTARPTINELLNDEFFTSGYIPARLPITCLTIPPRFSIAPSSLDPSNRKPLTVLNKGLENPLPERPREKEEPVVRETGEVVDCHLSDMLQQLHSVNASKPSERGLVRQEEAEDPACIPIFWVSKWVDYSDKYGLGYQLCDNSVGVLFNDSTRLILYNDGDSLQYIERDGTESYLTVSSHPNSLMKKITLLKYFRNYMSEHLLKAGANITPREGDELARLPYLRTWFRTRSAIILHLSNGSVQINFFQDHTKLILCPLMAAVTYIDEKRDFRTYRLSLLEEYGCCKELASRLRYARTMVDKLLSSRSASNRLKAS

CC[C@@H]1c2nnc(C)n2-c2cnc(Nc3ccc(C(=O)NC4CCN(C)CC4)cc3OC)nc2N1CC1CCCCC1
IC50 (VCaP [1]): 628 nM | IC50 (LNCaP [2]): 1450 nM | inhibition (CWR22R [3]): Active | Activity (CWR22R [4]): Active | Activity (CWR22R [5]): Active | inhibition (DU-145 [6]): Active | IC50 (PC-3 [7]): 1400 nM | Activity (CWR22R [8]): Active | inhibition (DU-145 [9]): Active | IC50 (CWR22R [10]): 580 nM | IC50 (DU-145 [11]): 1460 nM | inhibition (PC-3 [12]): Active | Activity (CWR22R [13]): Active | inhibition at 0.001 µM (LNCaP [14]): 100% | inhibition at 0.001 µM (CWR22R [15]): 100% | Activity (CWR22R [16]): Active | Activity (CWR22R [17]): Active

CC[C@@H]1c2nnc(C)n2-c2cnc(Nc3ccc(C(=O)NC4CCN(CCCCCCOc5cccc6c5C(=O)N(C5CCC(=O)NC5=O)C6=O)CC4)cc3OC)nc2N1CC1CCCCC1 (some centres not stated)
IC50 (MV4-11): 184 nM | IC50 [18]: 121 nM | IC50 [19]: 2430 nM

CC[C@@H]1c2nnc(C)n2-c2cnc(Nc3ccc(C(=O)NC4CCN(CCCCCOc5cccc6c5C(=O)N(C5CCC(=O)NC5=O)C6=O)CC4)cc3OC)nc2N1CC1CCCCC1 (some centres not stated)
IC50 (MV4-11): 21 nM | IC50 [18]: 151 nM | IC50 [19]: 1120 nM

CC[C@@H]1c2nnc(C)n2-c2cnc(Nc3ccc(C(=O)NC4CCN(CCCCCCCOc5cccc6c5C(=O)N(C5CCC(=O)NC5=O)C6=O)CC4)cc3OC)nc2N1CC1CCCCC1 (some centres not stated)
IC50 (MV4-11): 8 nM | inhibition (VCaP [20]): Active | IC50 [18]: 209 nM | IC50 [19]: 1250 nM | Activity [21]: Active

CC[C@@H]1c2nnc(C)n2-c2cnc(Nc3ccc(C(=O)NC4CCN(CCCCCCCCCOc5cccc6c5C(=O)N(C5CCC(=O)NC5=O)C6=O)CC4)cc3OC)nc2N1CC1CCCCC1 (some centres not stated)
IC50 (MV4-11): 36 nM | IC50 [18]: 225 nM | IC50 [19]: 2130 nM

CC[C@@H]1c2nnc(C)n2-c2cnc(Nc3ccc(C(=O)NC4CCN(C(=O)CCCCCCC(=O)Nc5cccc6c5CN(C5CCC(=O)NC5=O)C6=O)CC4)cc3OC)nc2N1CC1CCCCC1 (some centres not stated)
IC50 (MV4-11): 671 nM | IC50 [18]: 190 nM | IC50 [19]: 652 nM

CC[C@@H]1c2nnc(C)n2-c2cnc(Nc3ccc(C(=O)NC4CCN(CCCCCCCCCCOc5cccc6c5C(=O)N(C5CCC(=O)NC5=O)C6=O)CC4)cc3OC)nc2N1CC1CCCCC1 (some centres not stated)
IC50 (MV4-11): 153 nM | IC50 [18]: 284 nM | IC50 [19]: 5570 nM

CC[C@@H]1c2nnc(C)n2-c2cnc(Nc3ccc(C(=O)NC4CCN(C(=O)CCCCOc5cccc6c5C(=O)N(C5CCC(=O)NC5=O)C6=O)CC4)cc3OC)nc2N1CC1CCCCC1 (some centres not stated)
IC50 (MV4-11): 13 nM | IC50 [18]: 370 nM | IC50 [19]: 1190 nM

CC[C@@H]1c2nnc(C)n2-c2cnc(Nc3ccc(C(=O)NC4CCN(C(=O)CCCCNc5cccc6c5CN(C5CCC(=O)NC5=O)C6=O)CC4)cc3OC)nc2N1CC1CCCCC1 (some centres not stated)
IC50 (MV4-11): 753 nM | IC50 [18]: 311 nM | IC50 [19]: 1340 nM

CC[C@@H]1c2nnc(C)n2-c2cnc(Nc3ccc(C(=O)NC4CCN(C(=O)CCCOc5cccc6c5C(=O)N(C5CCC(=O)NC5=O)C6=O)CC4)cc3OC)nc2N1CC1CCCCC1 (some centres not stated)
IC50 (MV4-11): 18 nM | IC50 [18]: 738 nM | IC50 [19]: 788 nM

CC[C@@H]1c2nnc(C)n2-c2cnc(Nc3ccc(C(=O)NC4CCN(C(=O)CCCCCCOc5cccc6c5C(=O)N(C5CCC(=O)NC5=O)C6=O)CC4)cc3OC)nc2N1CC1CCCCC1 (some centres not stated)
IC50 (MV4-11): 10 nM | IC50 [18]: 658 nM | IC50 [19]: 1840 nM

CC[C@@H]1c2nnc(C)n2-c2cnc(Nc3ccc(C(=O)NC4CCN(CCCCNC(=O)COc5cccc6c5C(=O)C(C5CCC(=O)NC5=O)C6=O)CC4)cc3OC)nc2N1CC1CCCCC1 (some centres not stated)
IC50 (MV4-11): 359 nM | IC50 [18]: 219 nM | IC50 [19]: 310 nM

CC[C@@H]1c2nnc(C)n2-c2cnc(Nc3ccc(C(=O)NC4CCN(CCCCCCCCOc5cccc6c5C(=O)N(C5CCC(=O)NC5=O)C6=O)CC4)cc3OC)nc2N1CC1CCCCC1 (some centres not stated)
IC50 (MV4-11): 85 nM | IC50 [18]: 344 nM | IC50 [19]: 5140 nM

CC[C@@H]1c2nnc(C)n2-c2cnc(Nc3ccc(C(=O)NC4CCN(C(=O)CCCCCNc5cccc6c5CN(C5CCC(=O)NC5=O)C6=O)CC4)cc3OC)nc2N1CC1CCCCC1 (some centres not stated)
IC50 (MV4-11): 10 nM | IC50 [18]: 288 nM | IC50 [19]: 1210 nM

CC[C@@H]1c2nnc(C)n2-c2cnc(Nc3ccc(C(=O)NC4CCN(C(=O)CNc5cccc6c5CN(C5CCC(=O)NC5=O)C6=O)CC4)cc3OC)nc2N1CC1CCCCC1 (some centres not stated)
IC50 (MV4-11): 18 nM | IC50 [18]: 259 nM | IC50 [19]: 1980 nM

CC[C@@H]1c2nnc(C)n2-c2cnc(Nc3ccc(C(=O)NC4CCN(C(=O)CCCCCOc5cccc6c5C(=O)N(C5CCC(=O)NC5=O)C6=O)CC4)cc3OC)nc2N1CC1CCCCC1 (some centres not stated)
IC50 (MV4-11): 7 nM | IC50 [18]: 435 nM | IC50 [19]: 1230 nM

CC[C@@H]1c2nnc(C)n2-c2cnc(Nc3ccc(C(=O)NC4CCN(CCCCCCCCCCCOc5cccc6c5C(=O)N(C5CCC(=O)NC5=O)C6=O)CC4)cc3OC)nc2N1CC1CCCCC1 (some centres not stated)
IC50 (MV4-11): 188 nM | IC50 [18]: 379 nM | IC50 [19]: 3820 nM
